Values of other authors, collected in patent publication US20160286794A1, “PLANT DISEASE CONTROL AGENT AND PLANT DISEASE CONTROL METHOD” (UBE MATERIALS INDUSTRIES, LTD., priority 2013, published 2016).

conditions: Hydrophile-Lipophile Balance of the nonionic surfactant

In order of rising HLB:
1. nonylphenyl polyethylene glycol [Nodinet P-40]  13.0
2. octylphenol polyethylene glycol ether [Triton X-100]  13.5
3. polyoxyethylene branched nonyl cyclohexyl ether [Triton N-101]  13.5
4. polyethylene glycol sorbitan monooleate [Tween 80]  15.0
5. polyethylene glycol sorbitan monolaurate [Tween 20]  16.7
